Reference: US20190018003A1, “TUMOR DISCRIMINATION METHOD, DIAGNOSTIC AGENT FOR TUMOR, AND SENSITIZER FOR TUMOR DIAGNOSIS” (TOTO LTD., priority 2017, published 2019)

System: T24 urinary bladder cancer cells
Assay: Fluorescence enhancement in T24 cells by separate administration of hypericin and particles
Type: cell-based, human
Details: Example 9, fluorescent dye = hypericin 1 μmol/l 1 h, then particles 0.001 w/v % 2 h, immediately after observation light irradiation
Experimental: A solution (100 mmol/l) of hypericin (FUJIFILM Wako Pure Chemical Corporation) in dimethyl sulfoxide (FUJIFILM Wako Pure Chemical Corporation) as a solvent was mixed into an MEM medium (MEM, GlutaMAX™ supplement (Thermo Fisher Scientific)) to form a 1 μmol/l hypericin solution. Further, an aqueous solution of light scattering particles (2) (ii) was mixed into an MEM medium to form a 0.001 w/v % light scattering particle solution. Evaluation was performed as follows. The medium of the T24 cells on a 6-well plate, obtained in Example 3, was removed by an aspirator, and thereto was added 2 ml of MEM medium (Thermo Fisher Scientific). Once again, the MEM medium was removed by an aspirator, thereto was added 2 ml of hypericin solution, and the system was cultured under conditions of 3TC and 5 v/v % CO2 for 1 hour. Then, the hypericin solution of the cells on the 6-well plate was removed by an aspirator, to the residue was added 2 ml of the light scattering particle solution, and the system was cultured under conditions of 3TC and 5 v/v % CO2 for 2 hours. […] Detection of fluorescence was performed in the same manner as in Example 5 by using an inverted fluorescence microscope and, from the images acquired, fluorescence intensities were obtained and relative fluorescence intensities were calculated.

**Q.** Which Relative fluorescence intensity does the source give for `Cc1cc(O)c2c(=O)c3c(O)cc(O)c4c5c(O)cc(O)c6c(=O)c7c(O)cc(C)c8c1c2c(c34)c(c78)c65` [hypericin] here?
**A.** 1.0
